Measurements: article PMC3094704, “S-Petasin, the Main Sesquiterpene of Petasites formosanus, Inhibits Phosphodiesterase Activity and Suppresses Ovalbumin-Induced Airway Hyperresponsiveness” (Evidence-based Complementary and Alternative Medicine : eCAM, 2011)

Key:
PDE3 = assay: Inhibition of PDE3 activity and Lineweaver-Burk analysis; type: biochemical, guinea pig
Experimental: Activities of PDE1–5, partially separated from guinea pig lungs and hearts according to the method described by Ko et al., were measured with a two-step procedure according to the method of Thompson and Appleman, using cAMP with [^3H]-cAMP or cGMP with [^3H]-cGMP as substrates. The enzyme pμreparation (25 μL) was incubated for 30 min at 37°C in a total assay volume of […] containing 50 mM Tris-HCl (pH 7.4), 3 mM MgCl2, 1 mM dithiothreitol, 0.05% BSA, 1 μM cAMP with 0.2 μCi [^3H]-cAMP as a substrate alone or in the presence of 0.1 units calmodulin with 10 μM CaCl2 or 5 μM cGMP, and 1 μM cGMP with 0.2 μCi [^3H]-cGMP as another substrate alone or in the presence of 0.1 units calmodulin with 10 μM CaCl2. […] The reagents and homogenate were mixed on ice, and the reaction was initiated by transferring the mixture to a water bath at 37°C. Following a 30-min incubation, the reaction was stopped by transferring the reaction vessel to a bath of boiling water for 3 min. After cooling on ice, 20 μL of a 1 mg/mL solution of C. atrox snake venom was added to the reaction mixture, and the mixture was incubated at 37°C for 10 min. Unreacted [^3H]-cAMP or [^3H]-cGMP was removed by the addition of 500 μL of a 1-in-1 Tris-HCl (40 mM) buffer suspension of Dowex resin (1 × 8-200) with incubation on ice for 30 min. Each tube was then centrifuged for 2 min at 3700 g, and 150 μL of the supernatant was removed for liquid scintillation counting. […] The total protein in each fraction used was assayed according to the method described by Bradford. The PDE activities are shown as nmol/mg/min in the Lineweaver-Burk analysis.

[1] = tested on: OVA-sensitized and challenged BALB/c mice; assay: IgG2a and IgE in serum and BALF (ELISA); type: in vivo, mouse
Experimental: (§1) Ten female BABL/c mice in each group were sensitized by an intraperitoneal (i.p.) injection of 20 μg of OVA emulsified in 2.25 mg aluminum hydroxide gel in a total volume of 100 μL on days 0 and 14. The mice were challenged via the airway by 1% OVA in saline for 30 min on Days 28, 29 and 30 by ultrasonic nebulization. Six weeks after the last of three primary OVA challenges, the mice were exposed to 1% OVA for 30 min by nebulization as a secondary challenge. AHR was assessed on Day 74 (48 h after 1% OVA provocation) in each group. […] For comparison, sham-treated mice were sensitized but challenged with saline instead of 1% OVA (non-challenged). The vehicle, a mixture of alcohol : DMSO : 30% HPβCD : saline (0.5 : 0.5 : 1 : 8 , v/v), or S-petasin was injected at a volume of 0.01 mL/g of body weight. AHR was measured in unrestrained animals by barometric plethysmography using a whole-body plethysmograph (WBP) and analyzed using software of Life Science Suite P3 Analysis Modules (Gould, LDS Test and Measurement LLC, Valley View, OH, USA). The mice were placed into the main chamber of the WBP, and the baseline enhanced pause (P enh) value was determined. Then the mice were nebulized first with phosphate-buffered saline (PBS), and subsequently with increasing doses (6.25–50 mg/mL) of MCh for 3 min for each nebulization, followed by readings of breathing parameters for 3 min after each nebulization with determination of P enh values. Twenty-four hours after the P enh determination, these mice were anesthetized with pentobarbital (50 mg/kg, i.p.), and lavaged via a tracheal tube with PBS (1 × 1.0 mL, 37°C). After lavage, blood was collected from the jugular vein and allowed to sit so that it would coagulate. The collected bronchoalveolar lavage fluid (BALF) and coagulated blood were, respectively, centrifuged at 630 g for 7 min and at 3700 g for 10 min at 4°C, respectively. After centrifugation, the supernatants of BALF and serum were stored at −20°C until the determinations of cytokines, including interleukin (IL)-2, IL-4, IL-5, tumor necrosis factor (TNF)-α and interferon (IFN)-γ by flow cytometric methods using mouse Th1/Th2 cytokine CBA kits, of total immunoglobulin E (IgE), and of total IgG2a using enzyme-linked immunosorbent assay (ELISA) kits (Pharmingen, San Diego, CA, USA) according to the respective recommendations of the manufacturer. OVA-specific IgE was measured as described previously with some modifications. Wells were coated with 100 μL of OVA (20 μg/mL) instead of the capture antibody. Levels are expressed in arbitrary units, where one arbitrary unit equals the optical density of the sample divided by the optical density of unchallenged mouse serum or BALF (standard). The pellet from BALF was re-suspended in ACK lysing buffer (1.658 g NH4Cl, 0.2 g KHCO3 and 1.44 mg EDTA in 200 mL of water) to lyse the residual erythrocytes in each sample. The number of inflammatory cells was counted using a hemocytometer (Hausser Scientific, Horsham, PA, USA). Cytospun slides were stained and differentiated in a blinded fashion by counting at least 100 cells under light microscopy.

[2] = tested on: OVA-sensitized and challenged BALB/c mice; assay: Inflammatory cells in BALF; type: in vivo, mouse
Experimental: as §1

[3] = tested on: isolated sensitized guinea pig trachea; assay: OVA-induced tracheal contractions and baseline tension in vitro
Experimental: Male Hartley guinea pigs (500–600 g) were sensitized by intramuscular injections of 0.7 mL of 5% (w/v) OVA in saline on Days 1, 4 and 43, and in adjuvant on Days 25 and 39 into each thigh, according to a method described by Underwood et al. and modified by us. Three days after the last injection, sensitized guinea pigs were sacrificed by cervical dislocation, and their tracheas removed. Each trachea was cut into six segments. Each segment consisted of three cartilage rings. All segments were cut open opposite the trachealis. […] Tissues were suspended in normal Krebs solution under an initial tension of 1.5 g and allowed to equilibrate for at least 1 h with washing at 15-min intervals. After the tissues were precontracted with KCl (60 mM) and washed with normal Krebs solution, OVA (0.1–100 μg/mL) was cumulatively added, and contractions were allowed to reach a steady state at each concentration. […] Therefore, the log concentration-response curves of OVA were constructed in the absence and presence of S-petasin. The tension of the precontraction induced by KCl was set as 100%.

[4] = tested on: OVA-sensitized and challenged BALB/c mice; assay: Cytokines in BALF (CBA flow cytometry); type: in vivo, mouse
Experimental: as §1

[5] = 30 μmol/kg s.c., exception at 10 μmol/kg

For C=C(C)[C@@H]1C[C@@]2(C)C(=CC1=O)CC[C@@H](OC(=O)/C=C\SC)[C@@H]2C [S-Petasin], the Ki (PDE3; Lineweaver-Burk analysis, cAMP substrate, read-out: Ki on PDE isozyme 3) was 25.3 ± 2 µM, the “Mode of inhibition of PDE3 activity” value (PDE3; Lineweaver-Burk analysis, S-petasin 3–30 μM, milrinone 0.3–3 μM) was “competitively inhibited” and the IC50 (PDE3; mean ± SEM (n), read-out: IC50 on PDE isozyme 3) was 25.5 ± 1.5 µM. For the same compound, the “Reduction of total IgG2a level in the serum” value ([1]; 30 μmol/kg s.c.) was “significantly reversed”, the “Enhancement of total IgE in the BALF” value [1, 5] was “dose-dependently and significantly suppressed” and the “Enhancement of OVA-specific IgE in the BALF” value ([1]; 10–30 μmol/kg s.c.) was “dose-dependently and significantly suppressed”. The “Enhancement of OVA-specific IgE in the serum” value ([1]; 10–30 μmol/kg s.c.) was “dose-dependently and significantly suppressed”, the “Enhancement of total IgE in the serum” value ([1]; 10–30 μmol/kg s.c.) was “dose-dependently and significantly suppressed” and the “Increase in lymphocytes in BALF” value [2, 5] was “significantly suppressed”. For the same compound, the “Increase in eosinophils in BALF” value ([2]; 10–30 μmol/kg s.c.) was “significantly suppressed”, the “Increase in neutrophils in BALF” value ([2]; 10–30 μmol/kg s.c.) was “significantly suppressed” and the “Increase in total inflammatory cells in BALF” value ([2]; 10–30 μmol/kg s.c.) was “significantly suppressed”. The “Macrophages in BALF” value ([2]; 10–30 μmol/kg s.c.) was “not affected”, the “OVA (100 μg/mL)-induced contractions” value ([3]; 30–100 μM, 15 min preincubation) was “did not significantly inhibit” and the Baseline tension ([3]; 30–300 μM) was “concentration-dependently and significantly relaxed”. For the same compound, the “Increase in IL-4 level in BALF” value [4, 5] was “significantly suppressed”, the “Increase in IFN-γ level in BALF” value ([4]; 10–30 μmol/kg s.c.) was “significantly suppressed” and the “Increase in IL-2 level in BALF” value ([4]; 10–30 μmol/kg s.c.) was “significantly suppressed”. For the same compound, the “Increase in IL-5 level in BALF” value ([4]; 10–30 μmol/kg s.c.) was “significantly suppressed” and the “Increase in TNF-α level in BALF” value ([4]; 10–30 μmol/kg s.c.) was “significantly suppressed”.
